Tests used:
[1] = biological target: T1, HIV-1 integrase (wild-type IN) (Human immunodeficiency virus type 1 group M subtype B, UniProt P12497); experiment: HIV-1 integrase 3′-processing assay (32P-labeled 21-mer, gel); format: biochemical
From the text: (§1) The oligonucleotides 21 top, 5′-[…]-3′ (SEQ ID NO:1) and 21 bot, 5′-[…]-3′ (SEQ ID NO:2) were purchased from Norris Cancer Center Core Facility (University of Southern California) and purified by UV shadowing on polyacrylamide gel. To analyze the extent of 3′-processing and strand transfer using 5′-end labeled substrates, 21 top was 5′-end labeled using T4 polynucleotide kinase (Epicentre, Madison, Wis.) and γ [^32P]-ATP (Amersham Biosciences or ICN). The kinase was heat-inactivated and 21 bot was added in 1.5-molar excess. The mixture was heated at 95° C., allowed to cool slowly to room temperature, and run through a spin 25 mini-column (USA Scientific) to separate annealed double-stranded oligonucleotide from unincorporated material.
(§2) To determine the extent of 3′-processing and strand transfer, wild-type IN was preincubated at a final concentration of 200 nM with the inhibitor in reaction buffer (50 mM NaCl, 1 mM HEPES, pH 7.5, 50 μM EDTA, 50 μM dithiothreitol, 10% glycerol (w/v), 7.5 mM MnCl2, 0.1 mg/ml bovine serum albumin, 10 mM 2-mercaptoethanol, 10% dimethyl sulfoxide, and 25 mM MOPS, pH 7.2) at 30° C. for 30 min. Then, 20 nM of the 5′-end ^32P-labeled linear oligonucleotide substrate was added, and incubation was continued for an additional one hour. Reactions were quenched by the addition of an equal volume (16 μl) of loading dye (98% deionized formamide, 10 mM EDTA, 0.025% xylene cyanol and 0.025% bromophenol blue). An aliquot (5 μl) was electrophoresed on a denaturing 20% polyacrylamide gel (0.09 M tris-borate pH 8.3, 2 mM EDTA, 20% acrylamide, 8M urea).
(§3) Gels were dried, exposed in a PhosphorImager cassette, and analyzed using a Typhoon 8610 Variable Mode Imager (Amersham Biosciences) and quantitated using ImageQuant 5.2. Percent inhibition (% I) was calculated using the following equation: %I=100×[1−(D−C)/(N−C)]
(§4) where C, N, and D are the fractions of 21-mer substrate converted to 19-mer (3′-processing product) or strand transfer products for DNA alone, DNA plus IN, and IN plus drug, respectively. The IC50 values were determined by plotting the logarithm of drug concentration versus percent inhibition to obtain concentration that produced 50% inhibition. […]

[2] = biological target: T1, HIV-1 integrase (wild-type IN); experiment: HIV-1 integrase strand transfer assay (32P-labeled 21-mer, gel); format: biochemical
From the text: as §1, §2, §3, §4

[3] = wild-type IN 200 nM, 7.5 mM MnCl2, read-out: Inhibition of IN Catalytic Activities IC50 (μM) 3′-processing
[4] = wild-type IN 200 nM, 7.5 mM MnCl2, read-out: Inhibition of IN Catalytic Activities IC50 (μM) Strand Transfer
[5] = unit inferred, read-out: HIV-1 IN Inhibitory Activities 3′-processing
[6] = unit inferred, read-out: IN inhibition activity 3′-processing
[7] = unit inferred, read-out: HIV-1 IN Inhibitory Activities Strand transfer
[8] = unit inferred, read-out: IN inhibition activity Strand transfer
[9] = Table 54, read-out: IN inhibition activity 3′-processing
[10] = Table 54, read-out: IN inhibition activity Strand transfer
[11] = Table 53, structurally diverse compounds, read-out: IN inhibition activity 3′-processing
[12] = Table 53, structurally diverse compounds, read-out: IN inhibition activity Strand transfer

Row | Structure (SMILES) | IC50 [1, 3] [µM] | IC50 [2, 4] [µM] | IC50 [1, 6] [µM] | IC50 [2, 8] [µM] | other results
1 | CCn1cc(C(=O)O)c(=O)c2cc(F)c(N3CCN(C(=S)S)CC3)cc21 [ROM3A6] | > 100 | > 100 | – | – | –
2 | O=C(NNC(=O)c1c(O)c2ccccc2[nH]c1=O)c1ccccc1Cl [XR44] | 28 | 26 | – | – | –
3 | Cc1ccc(C(=O)C2=C(O)C(=O)N(CCCn3ccnc3)C2c2ccc(Cl)cc2)cc1 (centres unmarked) [Compound X155] | – | – | 93 ± 12 | 67 ± 28 | IC50 [1, 5]: 93 µM; IC50 [2, 7]: 67 µM
4 | COc1ccc(/C=C2\C(=O)N(c3nnn[nH]3)N=C2C)cc1OCc1ccccc1Cl [GLD12] | – | – | – | – | IC50 [1, 9]: 14 ± 7 µM; IC50 [2, 10]: 5 ± 3 µM
5 | COc1ccc2oc(=O)c(-c3csc(N/N=C/c4ccco4)n3)cc2c1 [Compound X144] | – | – | – | – | IC50 [1, 5]: 78 µM; IC50 [2, 7]: 29 µM
6 | Cn1c(SCC(=O)NNC(=O)c2ccccc2O)nnc1-c1ccccc1 [AS9A1] | – | – | 64 ± 4 | 58 ± 2 | –
7 | Cc1cc2nc(-c3cc(NC(=O)c4ccc(F)cc4)ccc3O)oc2cc1C [XR16] | – | – | – | – | IC50 [1, 5]: < 100 µM; IC50 [2, 7]: < 100 µM
8 | CCOC(=O)c1c(-c2ccccc2)csc1NC(NC(=O)c1ccco1)C(=O)c1ccc(C)cc1 (centres unmarked) [Example X88] | – | – | – | – | IC50 [1, 5]: > 100 µM; IC50 [2, 7]: 79 µM
9 | CCn1cc(C(=O)O)c(=O)c2c(N)c(F)c(N3CCNCC3)c(F)c21 [ROM3A7] | > 100 | 95 | – | – | –
10 | O=C(CSc1nc(CSc2ccc(Cl)cc2)cc(=O)[nH]1)Nc1ccc(Cl)cc1Cl [Example X272] | – | – | – | – | IC50 [1, 5]: 34 µM; IC50 [2, 7]: 24 µM
11 | O=C(C1=C(O)C(=O)N(c2nc3ccccc3s2)C1c1cccnc1)c1ccc(Cl)cc1 (centres unmarked) [Compound M28A21] | – | – | > 100 | 90 ± 10 | –
12 | COc1cc(/C=C2/SC(=S)N(CC(=O)O)C2=O)ccc1OC(=O)c1ccc(F)cc1 [OT9] | > 100 | 97 ± 5 | – | – | –
13 | O=C(CSc1nnc(-c2ccncc2)n1-c1ccc(F)cc1)NNC(=O)c1ccccc1O [AS9A7] | – | – | 49 ± 1 | 31 ± 2 | –
14 | COc1cc(/C=C2\C(=O)N(c3nnn[nH]3)N=C2C)cc(Cl)c1OC [GLD12A2] | – | – | – | – | IC50 [1, 9]: 5 ± 2 µM; IC50 [2, 10]: 4 ± 2 µM
15 | COc1ccc(-c2nnc(SCC(=O)N/N=C/c3cccc(Oc4ccccc4)c3)n2-c2ccccc2)cc1OC [LX6] | – | – | > 100 | > 100 | –
16 | O=C(CN1C(=O)/C(=C2\SC(=S)N(CC(=O)Nc3ccc(C(=O)O)cc3)C2=O)SC1=S)Nc1ccc(C(=O)O)cc1 [Compound X102] | 59 ± 31 | 75 | – | – | –
17 | CC1=C(C#N)c2nc(N)c(C#N)c(C)c2/C1=C/c1ccc(-c2ccccc2C(=O)O)o1 [AV15A45] | – | – | 91 ± 16 | 39 | –
18 | COc1ccc2oc(=O)c(-c3csc(N/N=C/c4ccccc4O)n3)cc2c1 [Compound X143] | – | – | – | – | IC50 [1, 5]: 30 µM; IC50 [2, 7]: 10 µM
19 | O=C(COc1ccccc1[N+](=O)[O-])Nc1ccc(O)c(-c2nc3ccccc3s2)c1 [Compound X257] | – | – | – | – | IC50 [1, 5]: 99 µM; IC50 [2, 7]: 80 µM
20 | O=C(O)c1cc(-c2ccc(/C=N/Nc3nc4nonc4nc3Nc3cccc(Br)c3)o2)ccc1O [AV15A24] | – | – | 5 ± 3 | 3.4 ± 2 | –
21 | CC(C)(C)c1ccc(C(=O)N/N=C/c2ccc(-c3cccc(C(=O)O)c3)o2)cc1 [AV15A36] | – | – | > 100 | 56 ± 22 | –
22 | Cc1cc(C)nc(SCc2nnc(SCC(=O)NNC(=O)c3ccccc3O)n2-c2ccccc2)n1 [AS9A3] | – | – | 51 ± 5 | 27 ± 8 | –
23 | O=C(O)c1cc(-c2ccc(/C=C/c3cc(C(F)(F)F)[nH]c(=O)n3)o2)ccc1Cl [AV15A12] | – | – | 74 ± 32 | 50 ± 25 | –
24 | COc1ccc(/C=C2/SC(=S)N(CC(=O)O)C2=O)cc1CCc1ccc(Cl)cc1Cl [OT6] | 17 ± 4 | 13 ± 7 | – | – | –
25 | Cc1cc(C)nc(SCc2nnc(SCC(=O)NNC(=O)c3ccccc3O)n2C)n1 [AS9A5] | – | – | < 100 | < 100 | –

Row | Structure (SMILES) | IC50 [1, 3] [µM] | IC50 [2, 4] [µM] | IC50 [1, 6] [µM] | IC50 [2, 8] [µM] | other results
26 | CC1=NN(c2nnn[nH]2)C(=O)/C1=C\c1cc(Cl)c(O)c(Cl)c1 [GLD12A5] | – | – | – | – | IC50 [1, 9]: 11 ± 3 µM; IC50 [2, 10]: 13 ± 11 µM
27 | O=C(O)C(Cc1c[nH]c2ccccc12)NS(=O)(=O)c1ccccc1[N+](=O)[O-] (centres unmarked) [Example X182] | – | – | – | – | IC50 [1, 5]: 88 µM; IC50 [2, 7]: 56 µM
28 | CCOc1cc(CNc2nn[nH]n2)cc(Cl)c1OCc1ccc(Cl)cc1 [GLD19] | – | – | – | – | IC50 [1, 11]: > 100 µM; IC50 [2, 12]: 52 ± 8 µM
29 | Cc1ccc(C=C2SC(=S)N(CC(=O)Nc3cc([N+](=O)[O-])ccc3O)C2=O)cc1 [Compound X191] | 84 ± 24 | 80 ± 18 | – | – | –
30 | O=C(O)c1cc(-c2ccc(/C=c3\sc4nc5ccccc5n4c3=O)o2)ccc1Cl [AV15A22] | – | – | 23 ± 3 | 15 ± 4 | –
31 | O=C(CCN1C(=O)C(=Cc2cccs2)SC1=S)Nc1cccc(O)c1 [Compound X177] | > 100 | > 100 | – | – | –
32 | Cc1cc2nc3s/c(=C\c4ccc(-c5cccc(C(=O)O)c5)o4)c(=O)n3c2cc1C [AV15A32] | – | – | > 100 | > 100 | –
33 | CCOc1ccc2c(c1)C(=C1SC(C(=O)OC)=C(C(=O)OC)S1)C(=S)C(C)(C)N2C(=O)c1ccccc1F [OT2] | > 100 | 95 ± 9 | – | – | –
34 | CCOC(=O)c1sc(N2C(=O)C(O)=C(C(=O)c3ccccc3)C2c2ccc(F)cc2)nc1C (centres unmarked) [Compound M28A10] | – | – | 44 ± 4 | 21 ± 4 | –
35 | COc1ccc(C2C(C(=O)c3ccco3)=C(O)C(=O)N2CCN2CCOCC2)c(OC)c1 (centres unmarked) [MMC8] | – | – | – | – | IC50 [1, 5]: > 1000 µM; IC50 [2, 7]: 395 µM
36 | O=C(CSc1nnnn1-c1ccccc1)NNC(=O)c1ccc(O)cc1O [AS9A8] | – | – | 68 ± 3 | 61 ± 6 | –
37 | O=C(Nc1ncccc1O)c1c(O)c2cccc3c2n(c1=O)CCC3 [LM11] | 56 | 15 | – | – | –
38 | CCn1cc(C(=O)O)c(=O)c2cc(F)c(N3CCN(S(=O)(=O)c4ccc(NC(C)=O)cc4)CC3)cc21 [SR9] | > 100 | > 100 | – | – | –
39 | COCCN1C(=O)/C(=C\c2ccc(OCc3ccc(C(=O)O)cc3)c(OC)c2)SC1=S [OT35] | 41 ± 11 | 38 ± 16 | – | – | –
40 | O=C(O)CCCCCN1C(=O)C(O)=C(C(=O)c2ccc(Cl)cc2)C1c1ccc2c(c1)OCO2 (centres unmarked) [Compound T38] | – | – | 25 | 20 | IC50 [1, 5]: 25 µM; IC50 [2, 7]: 20 µM
41 | O=C(O)CCN1C(=O)/C(=C\c2ccc(-c3cccc(Cl)c3)o2)SC1=S [RT23] | > 100 | 21 | – | – | –
42 | COc1cc(C(=O)Nc2ccc(O)c(C(=O)O)c2)cc(OC)c1OC [Compound X108] | > 100 | > 100 | – | – | –
43 | O=C(CSc1nnc(-c2ccccc2O)n1Cc1ccccc1)NNC(=O)c1ccccc1O [AS9A11] | – | – | 15 ± 3 | 9 ± 2 | –
44 | O=C(CCN1C(=O)/C(=C/c2ccccc2Cl)SC1=S)Nc1ccc([N+](=O)[O-])cc1 [Compound X200] | > 100 | > 100 | – | – | –
45 | O=C(N/N=C/c1ccc(-c2ccc(Cl)c(Cl)c2)o1)c1ccccc1O [OT8] | 31 ± 16 | 14 ± 4 | – | – | –
46 | Cc1ccc2nc(-c3ccc(NC(=O)/C=C/C(=O)O)cc3)sc2c1 [GLD28] | – | – | – | – | IC50 [1, 11]: 48 ± 19 µM; IC50 [2, 12]: 23 ± 4 µM
47 | COc1ccc(/C=C2/SC(=S)N(CC(=O)O)C2=O)cc1OCc1ccccc1F [OT37] | > 100 | 79 ± 8 | – | – | –
48 | O=C(CCN1C(=O)/C(=C/c2cccs2)SC1=S)Nc1ccc2ccccc2c1 [Compound X174] | > 100 | > 100 | – | – | –
49 | COc1ccc(/C=N/NC(=O)CSc2nnc(-c3ccccc3)n2-c2ccccc2)c(C(=O)O)c1OC [OT10] | – | – | > 100 | > 100 | –
50 | Cn1c(=O)c(C(=O)Nc2ccccc2C(F)(F)F)c(O)c2ccccc21 [XR12] | 81 | 28 | – | – | –

— patent US8183236B2, “Compounds with HIV-1 integrase inhibitory activity and use thereof as anti-HIV/AIDS therapeutics” (University of Southern California, priority 2007, dated 2012)
